Tests used:
[1] = target: T1, HSAT, MetX, Rv3341, (His)6-MetX, (His)6-Rv3341 (Mycobacterium tuberculosis, UniProt P9WJY9); test: DTNB CoA release endpoint assay; type: biochemical
T1 construct: gene metXA

[2] = target: T2, S. aureus HSAT, HSAT homolog from S. aureus (Staphylococcus aureus, UniProt A0A447ZIT7); test: DTNB CoA release endpoint assay; type: biochemical; conditions: 1.0 mM L-homoserine, 1.0 mM acetyl-CoA, 5.0 mM MgCl2, Tris-Cl pH 7.4, 37 °C
T2 construct: gene metX; cloned in pET28b (His tag implied), expressed in E. coli BL-21 (DE3, plysS), Ni-NTA and gel filtration; 4QLO used for docking
T2 sequence (A0A447ZIT7 1-322): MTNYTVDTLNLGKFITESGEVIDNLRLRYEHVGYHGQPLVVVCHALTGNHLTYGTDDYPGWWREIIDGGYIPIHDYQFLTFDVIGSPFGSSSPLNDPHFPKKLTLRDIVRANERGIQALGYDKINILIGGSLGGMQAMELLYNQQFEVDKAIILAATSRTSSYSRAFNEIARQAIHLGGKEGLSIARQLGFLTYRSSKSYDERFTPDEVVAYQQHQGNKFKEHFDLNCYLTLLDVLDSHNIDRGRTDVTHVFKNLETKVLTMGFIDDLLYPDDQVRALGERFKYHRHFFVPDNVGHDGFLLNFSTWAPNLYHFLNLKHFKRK

T1 sequence (P9WJY9 whole entry, looked up): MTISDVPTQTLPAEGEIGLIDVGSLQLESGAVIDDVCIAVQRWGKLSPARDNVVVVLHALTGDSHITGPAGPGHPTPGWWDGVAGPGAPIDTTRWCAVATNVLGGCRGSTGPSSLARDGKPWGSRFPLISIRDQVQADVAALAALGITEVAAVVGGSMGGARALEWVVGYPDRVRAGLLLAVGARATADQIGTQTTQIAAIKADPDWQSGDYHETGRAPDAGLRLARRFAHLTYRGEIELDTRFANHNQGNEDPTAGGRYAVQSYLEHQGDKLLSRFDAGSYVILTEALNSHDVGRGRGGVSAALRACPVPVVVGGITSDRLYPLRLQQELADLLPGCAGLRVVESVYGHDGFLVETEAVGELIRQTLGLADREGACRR

SMILES	inhibition at 100 µM [1]	% inhibition at 100 μM [2]	% inhibition at 100 μM ([1]; 1.0 mM L-homoserine, 1.0 mM acetyl-CoA, 5.0 mM MgCl2, Tris-Cl pH 7.4, 37 °C)
CCOC(=O)/C(C#N)=C1\SS/C(=C(/C#N)C(=O)OCC)S1 [compound 2, NSC98363]	> 50%		
Oc1cc(CNC2CCCCC2)c(O)cc1CNC1CCCCC1 [compound 3, NSC48443]	> 50%	> 60%	
C/C(=N\NC(=S)N(C)C)c1ccccn1.[Cu][Br] [compound 4, NSC635448]		> 60%	> 50%
Cc1ccc(S(=O)(=O)SC/C=C/CSS(=O)(=O)c2ccc(C)cc2)cc1 [compound 5, NSC624158]	> 50%	> 60%	
COc1cc(-c2ccc(Nc3ccccc3C(=O)O)c(OC)c2)ccc1Nc1ccccc1C(=O)O [compound 6, NSC73735]	> 50%		
O=Nc1c(-c2cccc([N+](=O)[O-])c2)nc2ncccn12 [compound 7, NSC369066]	> 50%		
Oc1cc(-n2cccn2)c(O)cc1-n1cccn1 [compound 8, NSC645987]	> 50%		

— paper PMC9376091, “Identification of small molecules targeting homoserine acetyl transferase from Mycobacterium tuberculosis and Staphylococcus aureus” (Scientific Reports, 2022)
